# Legend:
# APP/PS1 mice [1] = assay: Y-maze test; type: in vivo; conditions: HYP 20/40/80 mg/kg nasal, every 3 days, after 7 weeks
# Description: All animal care and experimental procedures were performed in accordance with the “Institutional Animal Care and User Committee Guidelines” of the Macau University of Science and Technology. APP/PSEN1 (APP/PS1) mice (N000175) were purchased from the Nanjing Institute of Biomedical Sciences, Nanjing University, China, weighing 25 ± 5 g. The animals were housed in a temperature-controlled room with a 12 h light/dark cycle and given ad libitum food and water. Male mice were randomly divided into the following 6 experimental groups. (a) wild-type group (n = 6), (b) APP/PS1 group (n = 6), (c) HYP (20 mg/kg group) (n = 7), (d) HYP (40 mg/kg) group (n = 8), (e) HYP (80 mg/kg) group (n = 8) and (f) memantine (MEM) (10 mg/kg) positive control group (n = 8). HYP was dissolved in the solvent containing 10% DMSO, 40% PEG300 and 5% Tween-80 in PBS, and administrated via nasal injection for every 3 days with a volume of 0.5 μL/g of body weight for 8 consecutive weeks. Y-maze tests assess cognitive changes, short-term spatial working memory (by spontaneous alternation), and exploratory activity (by total number of arm choices) of mice. […] The number of total arm choices and sequence of arm choices were recorded. The percentage of alternation can be calculated as the ratio of total number of alternations / the number of arms entered x 100%. […]
# HT22 cells = assay: Cytotoxicity (MTT) assay; type: cell-based
# Description: Cytotoxicity was assessed using the MTT (5.0 mg/mL) assay. 4 × 10^3 HT22 cells per well were seeded in 96-well plates. After overnight incubation, cells were treated with Aβ aggregates (30 μM) for 48 h with or without the presence of HYP (20–80 μM). Cells were treated with DMSO as a control. Subsequently, MTT (10 μL) was added to each well for 4 h, followed by the addition of 100 μL of lysis buffer (10% SDS in 0.01 mol/L hydrochloric acid) and overnight incubation. The absorbance was measured at 570 nm the next day. The formula was calculated as a percentage of cell viability: Cell viability (%) = A (treatded) / A (control) × 100%. Data were obtained from three independent experiments in triplicate.
# APP/PS1 mice [2] = assay: Rotarod test; type: in vivo; conditions: HYP nasal, every 3 days, 8 weeks
# Description: All animal care and experimental procedures were performed in accordance with the “Institutional Animal Care and User Committee Guidelines” of the Macau University of Science and Technology. APP/PSEN1 (APP/PS1) mice (N000175) were purchased from the Nanjing Institute of Biomedical Sciences, Nanjing University, China, weighing 25 ± 5 g. The animals were housed in a temperature-controlled room with a 12 h light/dark cycle and given ad libitum food and water. Male mice were randomly divided into the following 6 experimental groups. (a) wild-type group (n = 6), (b) APP/PS1 group (n = 6), (c) HYP (20 mg/kg group) (n = 7), (d) HYP (40 mg/kg) group (n = 8), (e) HYP (80 mg/kg) group (n = 8) and (f) memantine (MEM) (10 mg/kg) positive control group (n = 8). HYP was dissolved in the solvent containing 10% DMSO, 40% PEG300 and 5% Tween-80 in PBS, and administrated via nasal injection for every 3 days with a volume of 0.5 μL/g of body weight for 8 consecutive weeks. The rotarod test was used to monitor motor coordination. The test consisted of placing the animal on a rotating rod with a rotational speed of 25 rpm (Yuyan, Shanghai, China) until the animal fell to the ground and the movement time was recorded. The test was performed three times with an interval of 300 s, and the mean of the test results were calculated.
# APP/PS1 mice [3] = assay: HE staining of hippocampus; type: in vivo; conditions: hippocampus CA1, CA3, DG, nasal HYP
# Description: All animal care and experimental procedures were performed in accordance with the “Institutional Animal Care and User Committee Guidelines” of the Macau University of Science and Technology. APP/PSEN1 (APP/PS1) mice (N000175) were purchased from the Nanjing Institute of Biomedical Sciences, Nanjing University, China, weighing 25 ± 5 g. The animals were housed in a temperature-controlled room with a 12 h light/dark cycle and given ad libitum food and water. Male mice were randomly divided into the following 6 experimental groups. (a) wild-type group (n = 6), (b) APP/PS1 group (n = 6), (c) HYP (20 mg/kg group) (n = 7), (d) HYP (40 mg/kg) group (n = 8), (e) HYP (80 mg/kg) group (n = 8) and (f) memantine (MEM) (10 mg/kg) positive control group (n = 8). HYP was dissolved in the solvent containing 10% DMSO, 40% PEG300 and 5% Tween-80 in PBS, and administrated via nasal injection for every 3 days with a volume of 0.5 μL/g of body weight for 8 consecutive weeks. Pathological assessment on the cornuammonis region 1 (CA1), cornuammonis region 3 (CA3) and dentate gyrus region (DG) regions of the mouse hippocampus was done by HE staining. Brain sections were dehydrated with 70%, 80% and 90% alcohol respectively. […]
smiles,measurement,setting,value
"O=c1c(O[C@@H]2O[C@H](CO)[C@H](O)[C@H](O)[C@H]2O)c(-c2ccc(O)c(O)c2)oc2cc(O)cc(O)c12 [HYP, Quercetin-3-O-β-D-galactopyranoside]",spatial working memory (Y-maze alternation),APP/PS1 mice [1],resumed to a level comparable to WT mice group
same,cellular toxicity of HYP alone (MTT),HT22 cells; HYP 20–80 μM,no obvious cellular toxicity was observed
same,cell viability with aggregated Aβ co-treatment (MTT and flow cytometry),HT22 cells; HYP 20–80 μM + aggregated Aβ 30 μM,increased the cell viability in a dose-dependent manner
same,motor ability (time retained on the rotating rod),APP/PS1 mice [2],improved after HYP treatment
same,neuronal cell morphology (HE staining),APP/PS1 mice [3],neuronal cell morphological changes were minimal
